Earlier results as cited in PMC10846240, “Pharmacokinetic/pharmacodynamic integration of amphenmulin: a novel pleuromutilin derivative against Mycoplasma gallisepticum” (Microbiology Spectrum, 2023).
Values after ≈ are worked out from the molar mass of the structure shown.

Experiments:
[1] = parameters: method as in PMID 26747098; conditions: after intravenous injection; cited from earlier work
Streptococcus pneumoniae = system: Streptococcus pneumoniae; parameters: method as in PMID 30019769; conditions: neutropenic murine thigh and lung infection model; cited from earlier work
Staphylococcus aureus = system: Staphylococcus aureus; parameters: method as in PMID 30019769; conditions: neutropenic murine thigh and lung infection model; cited from earlier work
[2] = system: M. gallisepticum S6 strain; parameters: method as in PMID 27656647; conditions: same strain (S6); cited from earlier work
M. gallisepticum = system: M. gallisepticum; parameters: method as in PMID 27656647, PMID 25845865; conditions: intratracheal infection model; cited from earlier work

## C=C[C@]1(C)C[C@@H](OC(=O)CS[C@@H]2CC[C@@H](N)C[C@H]2O)[C@]2(C)[C@H](C)CC[C@]3(CCC(=O)[C@H]32)[C@@H](C)[C@@H]1O [lefamulin]
[1]
  free drug concentration in pulmonary epithelial lining fluid relative to plasma: 5.7 times
Streptococcus pneumoniae
  character of activity: time- and concentration-dependent activity
Staphylococcus aureus
  character of activity: time- and concentration-dependent activity

## C=C[C@]1(C)C[C@@H](OC(=O)CSCCN(CC)CC)[C@]2(C)[C@H](C)CC[C@]3(CCC(=O)[C@H]32)[C@@H](C)[C@@H]1O [tiamulin]
[2]
  MIC: 0.03 µg/mL (≈ 0.0608 µM)
M. gallisepticum
  optimized therapeutic dosages: 45 mg/kg
  parameter most relevant to anti-mycoplasma effect: AUC/MIC

## C=C[C@]1(C)C[C@@H](OC(=O)CSC(C)(C)CNC(=O)[C@H](N)C(C)C)[C@]2(C)[C@H](C)CC[C@]3(CCC(=O)[C@H]32)[C@@H](C)[C@@H]1O [valnemulin]
M. gallisepticum
  optimized therapeutic dosages: 6.5 mg/kg
  parameter most relevant to anti-mycoplasma effect: AUC/MIC
